Experimental data reported in patent US20140031431A1, “PEST-IMPERVIOUS PACKAGING MATERIAL AND PEST-CONTROL COMPOSITION” (Biopack Ltd., priority 2004, published 2014).

Assays:
T. castaneum adults = assay: Repellency bioassay (Examples 2-4); format: in vivo, Tribolium castaneum; set-up: key to Repellency: 0 (no effect); +; ++; +++ (strong effect)
Protocol: (§1) In order to evaluate the effect of isolated samples or compounds on the behavior of storage insects, three bioassays were conducted: repellency, “choice” and “non-choice” paper perforation bioassays. These bioassays were aimed to uncover two principle activities: repellency and antifeedant activities. Accordingly, the “repellency bioassay” uncovered the sample's capacity to repel insects and the “choice bioassay” uncovered the combined antifeedant and repelling activities. […] Thus, the combined data of all three bioassays enabled determining the antifeedant capacity of the sample.
The propensity of the tested extracts to repel insects was determined against T. castaneum adults using the methods by Laudani et al. (1955) and McDonald et al. (1970). Accordingly, filter paper strips (Filtrak 3 HW; 10×20 cm) were treated with 4 ml of acetone solutions of turmeric extracts at 50 μg/cm^2 (or any other predetermined concentration). Each treated paper strip was attached lengthwise by Scotch tape on the reverse side, edge to edge, to two untreated 5×20 cm strips, to which acetone alone had been similarly applied. Two glass rings, 2.5 cm high and 6.4 cm i.d., were then placed over the two matched papers so that the joined edges of the papers bisected the rings. Ten adults of the test insect species were then exposed separately on the test arenas inside each glass ring, and their numbers on the treated and untreated halves were recorded every hour for the first eight hours exposure on the first day, and then in the morning of the next day two additional recordings were made for a total of 10 consecutive readings. In each test four replicates were conducted. All tests were performed at 27° C. The average count of all four replicates, each containing 10 reading periods was converted to percent repellency values, as described by Laudani et al. (1955).

[1] = test system: several field and storage insects; conditions: direct application methods; cited from earlier work
storage insects = assay: Penetration prevention (antifeedant) effect judged from combined repellency, choice and non-choice bioassays; format: in vivo, Rhyzopertha dominica; set-up: key: 0 (no effect); +; ++; +++ (strong effect); conditions: at 50 μg/cm^2, 4 arbitrary classes
Protocol: as §1

R. dominica adults [2] = assay: Non-choice paper perforation bioassay (Examples 2-4); format: in vivo, Rhyzopertha dominica; conditions: 24 hours
Description: The device used for the penetration prevention bioassay consisted of two identical open-ended glass cylinders (24 mm i.d., 28 mm o.d., 26 mm height) each with four notches spaced at equal distances around the outer rim. The impregnated office paper and a piece of wire-mesh (US standard No. 25) cut into 28 mm diameter discs were placed together on top of one cylinder. Then the second cylinder was placed over the wire-mesh and the two cylinders were pressed together and held in place by two rubber bands, secured by the notches in the cylinder rims (Navarro et al., 1998). Ten 10-15 d old R. dominica adults were placed inside the top cylinder and were kept in the test devices for […] in a temperature and humidity controlled room. All tests were run at 27° C. and 65% R.H., and there were ten replicates (devices) per test. At the end of each exposure period, the discs were examined on a black surface under a binocular microscope at 15× magnification. The number of perforations appearing as black circles were counted, and a comparative analysis was performed using the Student's t test for residual effect and the differences between control and dosages applied were determined using Dunnet's test (Anon., 1989). […]

[3] = test system: storage beetle Tribolium castaneum; conditions: as long as 8 weeks following application; cited from earlier work
R. dominica adults [4] = assay: Choice paper perforation bioassay (Examples 2-4); format: in vivo, Rhyzopertha dominica
Protocol: as §1
The same methodology used in the non-choice test was used in this test. However, in choice test, the 28 mm diameter discs of 110 μm thick office paper were divided in half; one side was impregnated with the oil or fraction under test, while the other half was used as a blank and was treated with acetone only. In this test only a 50 microgram sample of the test oil or fraction was applied per cm^2 of paper. […] The number of perforations appearing in the two parts of the disc were counted, and a comparative analysis was performed using the Student's t test for residual effect and the differences between control and dosages applied were determined using Dunnet's test (Anon., 1989).

CC(C)=CC(=O)CC(C)c1ccc(C)cc1 (stereo not drawn) [ar-turmerone, 2-methyl-6-(4-methylphenyl)-2-hepten-4-one]
Repellency test (%) (50 μg/cm^2) (T. castaneum adults; 50 μg/cm^2): 75% | Repellency (T. castaneum adults; at 50 μg/cm^2, 4 arbitrary classes): +++ | ar-turmerone required to achieve 60% repellency (T. castaneum adults; estimated from concentration-repellency curve (FIG. 2)): ~32 μg/cm^2 | concentration at which insecticidal [1]: at least 500 ppm | Penetration prevention effect (storage insects): 0 | Non-choice test (%) (50 μg/cm^2) (R. dominica adults [2]): −483% | average repellency [3]: 62.9% | repellency class [3]: IV (class IV, 60.1-80%) | Choice Test (%) (50 μg/cm^2) (R. dominica adults [4]): 89%
